For one assay, the system named is capsaicin-induced pain. Put plainly: capsaicin-induced pain assessed by deep learning model from images of cortical nerve cells. The class given is in vivo, mouse. The following applies: capsaicin pain state compared to before administration and after pain has subsided; model trained with formalin pain data; FIG. 11A. An excerpt: FIG. 11 is an analysis result for capsaicin-induced pain. FIG. 11 is a result of applying a deep learning model trained with formalin pain data to other pain causes. […] FIG. 11B is an ROC curve showing pain classification performance for FIG. 11A. It can be seen from the ROC curve that the AUC value is 0.93, which is a reliable level.

For assay [1], the system named is cerebellar Bergmann glial cells. Kind of assay: pain assessment using the activity of cerebellar Bergmann glial cells. In kind it is in vivo. The following applies: Bergmann glial cell activity image, cerebellar region; FIG. 13B. An excerpt:
The researcher analyzed pain assessments based on areas of a brain other than cortical nerve cells. Pain assessment results using cerebellar Bergmann glial cells will be described below. Bergmann glial cells are a type of glial cell as described above. In this case, the deep learning model must be trained in advance with an image showing the activity of Bergmann glial cells of the cerebellum (e.g., a two-photon microscope image of a cerebellar region). The training data may be a two-photon microscope image of a cerebellar region and pain information (normal state or pain state) at the time of generating a corresponding image. The experimental results below are the results of the analysis device inputting individual cell activity values into the average value-based neural network model.
FIG. 13 is a result of assessing pain using the activity of cerebellar Bergmann glial cells. […] The assessment time for capsaicin was a total of 30 minutes, and the activity was assessed for 10 minutes at the time of administration and was further assessed for 10 minutes before and after administration. […] The reference state (Vehicle) is a state in which capsaicin is not injected. Referring to FIG. 13B, it can be seen that the pain assessment result is distinguished as a pain state for about 10 minutes after capsaicin injection. […]

The subject of the next assay is formalin-induced pain. The following applies: FIG. 10A.

Description for formalin-induced pain: The subject animal is a mouse.
The following experimental results are assessment results obtained by inputting an activity value of an individual cell into a neural network constructed using average calcium activity values.
FIG. 10 is divided into baseline (B), early (E), inter (I), late (L), and recovery (R) sections according to time.

With `COc1cc(CNC(=O)CCCC/C=C/C(C)C)ccc1O` [capsaicin], the predicted pain probability entry with capsaicin-induced pain was “higher”. Besides, the “time distinguished as a pain state after capsaicin injection” value in assay [1] is recorded as “about 10 minutes”. Regarding `CCN(CC)CC(=O)Nc1c(C)cccc1C` [lidocaine], the predicted pain probability entry with formalin-induced pain (analgesic given in addition to a high concentration (5%) of formalin) is reported as “little pain”. For `C=O` [Formalin, formalin], in the assay with formalin-induced pain (formalin 5% or 1%, sections baseline, early, inter, late, recovery), the “predicted pain probability (formalin pain)” value is recorded as “appears only in E (early phase)”.

Source of the values: US12257070B2, “Pain assessment method based on deep learning model and analysis device” (NEUROGRIN INC., priority 2019, dated 2025).
